Biological target: T1, Xeroderma pigmentosum type B (XPB) (Homo sapiens, UniProt P19447)
T1 sequence (P19447 1-782): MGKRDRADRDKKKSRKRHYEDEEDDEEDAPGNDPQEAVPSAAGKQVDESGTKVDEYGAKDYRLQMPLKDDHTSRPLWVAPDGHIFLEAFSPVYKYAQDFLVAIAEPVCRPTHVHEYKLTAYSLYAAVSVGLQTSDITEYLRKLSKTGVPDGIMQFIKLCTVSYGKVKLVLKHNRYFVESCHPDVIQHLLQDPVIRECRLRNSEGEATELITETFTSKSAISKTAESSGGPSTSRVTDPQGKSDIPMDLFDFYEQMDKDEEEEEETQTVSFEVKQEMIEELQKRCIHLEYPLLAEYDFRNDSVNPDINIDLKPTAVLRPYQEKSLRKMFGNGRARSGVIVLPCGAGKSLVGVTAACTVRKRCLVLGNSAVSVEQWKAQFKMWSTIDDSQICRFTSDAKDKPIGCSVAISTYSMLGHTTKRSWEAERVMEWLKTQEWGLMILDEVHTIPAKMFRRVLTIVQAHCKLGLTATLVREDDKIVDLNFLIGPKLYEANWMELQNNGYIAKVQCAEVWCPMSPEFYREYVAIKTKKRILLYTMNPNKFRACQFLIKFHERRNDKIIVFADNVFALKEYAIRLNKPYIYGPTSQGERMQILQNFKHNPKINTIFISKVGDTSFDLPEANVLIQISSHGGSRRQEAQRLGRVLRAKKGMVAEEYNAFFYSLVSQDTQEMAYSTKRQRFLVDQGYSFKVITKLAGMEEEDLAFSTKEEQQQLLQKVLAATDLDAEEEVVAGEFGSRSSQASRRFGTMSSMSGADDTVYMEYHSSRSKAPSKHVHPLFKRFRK
Experiment: live-cell covalent labelling, click to TAMRA, in-gel fluorescence
Type: cell-based

Substance: triptolide-alkyne [TL-alk]
- EC50: 92.6 nM

— PMC12402854 (Angewandte Chemie (International Ed. in English), 2025)
